Laboratory results from article PMC9794428, “Enzyme Inhibitory Activities of Extracts and Carpachromene from the Stem of Ficus benghalensis” (BioMed Research International, 2022).

Tests used:
PDE-1 = tested on: T1, PDE-1; assay: bis(p-nitrophenyl) substrate hydrolysis, […] nm; format: biochemical; details: 0.33 mM bis(p-nitrophenyl) substrate, Mg acetate, Tris-HCl pH 8.8, 37 °C
T1 construct: gene phosphodiesterase I; substrate bis(p-nitrophenyl) phosphate type, pH 8.8 and Mg acetate fit the usual snake venom phosphodiesterase I, not the docking model human PDE1B (5W6E)

[1] = molecular target: T2, mushroom tyrosine [tyrosinase]; assay: L-DOPA oxidation, absorbance […] nm; format: biochemical; details: L-DOPA (printed L-DOP) substrate, phosphate buffer, 37 °C
T2 construct: gene PPO1; docking model 1WX2 is another species (Streptomyces)

| Compound | IC50 (PDE-1; chelator used as standard) [µM] | IC50 [1] [µM] | IC50 (PDE-1) [µM] |
| --- | --- | --- | --- |
| O=C(O)CN(CCN(CC(=O)O)CC(=O)O)CC(=O)O [EDTA] | 264.1 ± 1.09 |  |  |
| O=c1cc(CO)occ1O [Kojic acid] |  | 44 ± 1.1 |  |
| CC1(C)C=Cc2c(cc3oc(-c4ccc(O)cc4)cc(=O)c3c2O)O1 [compound 1, carpachromene] |  | 40.5 ± 2 | 209.4 ± 1.87 |
